Our source for the IC50 values is patent US12421254B2, “KRAS modulators and uses thereof” (Quanta Therapeutics, Inc., priority 2023, dated 2025).

Assay [1] has as its target GST-tagged KRAS-G12D (2-169) (Homo sapiens, UniProt P01116, G12D). As to the kind of experiment: Nucleotide exchange assay (NEA), SOS-mediated, HTRF, KRAS G12D. Particulars: Table 4; IC50 extracted at 30 min; 20 nM SOScat; read-out: NEA G12D IC50. Type of assay: biochemical. In outline:
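SOS1cat-driven loading of fluorescent GTP-DY-647P1 (150 nM) onto GST-KRAS-G12D (2-169, 0.25 nM) read by time-resolved FRET; SOScat 20 nM, compound preincubated with KRAS 1 h at RT. Signal blanked to no-SOS reactions, normalized to DMSO; IC50 fitted from the 30-min read.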

Assay [2] has as its system phospho-ERK in GP2D (KRAS-G12D) cells. As to the kind of experiment: pERK In Cell Western (ICW) assay (Method B), GP2D. Type of assay: cell-based. Conditions: GP2d, 3 h, Table 4. Put shortly:
(§1)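 Per well, infrared pERK immunofluorescence was divided by DRAQ5 nuclear signal following 3 h treatment with a 9-point, ½-log compound series; seeding was 5,000 (AGS) or 10,000 (GP2D, SW620) cells per well. Percent-of-blank data were fitted to a four-parameter model for IC50.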

In assay [3] the test system is phospho-ERK in SW620 (KRAS-G12V) cells. As to the kind of experiment: pERK In Cell Western (ICW) assay (Method B), SW620. Conditions: Homo sapiens, SW-620, 3 h, Table 4. Type of assay: cell-based. Put shortly: as §1
In assay [4] the target is GST-tagged KRAS-G12V (2-169) (Homo sapiens, UniProt P01116, G12V). As to the kind of experiment: Nucleotide exchange assay (NEA), SOS-mediated, HTRF, KRAS G12V. Type of assay: biochemical. Conditions: Table 4; IC50 extracted at 90 min; 80 nM SOS. Put shortly:
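Exchange onto fluorescent GTP-DY-647P1 (150 nM final) catalysed by 80 nM SOS1cat was followed by Tb-anti-GST HTRF at RT for up to 90 min, after 1 h compound pre-incubation with 0.25 nM GST-tagged KRAS-G12V (2-169), pH 7.3. DMSO = 0%, no-SOS blank = 100%; 4-parameter IC50 taken at 90 min.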
Background: Time-resolved FRET reads energy transfer from a long-lived donor to a nearby acceptor.

As usually defined, the IC50 is the concentration that gives 50% inhibition.

Sequence of GST-tagged KRAS-G12D (2-169) (P01116 2-169 isoform P01116-2 G12D): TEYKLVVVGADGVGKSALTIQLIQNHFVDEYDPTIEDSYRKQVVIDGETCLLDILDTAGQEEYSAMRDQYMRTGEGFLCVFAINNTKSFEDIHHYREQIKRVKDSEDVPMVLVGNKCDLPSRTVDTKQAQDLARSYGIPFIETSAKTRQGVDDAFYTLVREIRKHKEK
Sequence of GST-tagged KRAS-G12V (2-169) (P01116 2-169 isoform P01116-2 G12V): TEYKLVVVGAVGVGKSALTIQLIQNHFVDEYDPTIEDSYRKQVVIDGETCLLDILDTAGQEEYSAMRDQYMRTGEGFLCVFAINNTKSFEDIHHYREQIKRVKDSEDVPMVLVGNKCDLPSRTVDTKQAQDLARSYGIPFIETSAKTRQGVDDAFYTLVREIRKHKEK

For the molecule `CC1(C#N)CCCN(c2nc(OCC3(CN4CCOCC4)CC3)nc(N3CC4(CCc5sc(N)c(C#N)c54)C3)n2)C1` (stereo not drawn) [Compound 57, 2-amino-1′-[4-(3-cyano-3-methyl-1-piperidyl)-6-[[1-(morpholinomethyl)cyclopropyl]methoxy]-1,3,5-triazin-2-yl]spiro[5,6-dihydrocyclopenta[b]thiophene-4,3′-azetidine]-3-carbonitrile], the IC50 fell in the range of 100 to 1000 nM in assay [1], 1000 to 20000 nM in assay [2], 1000 to 20000 nM in assay [3] and 10 to 100 nM in assay [4].

With `CCN(c1nc(OCC2(CN3C4CCC3COC4)CC2)nc(N2CC3(C2)SCc2sc(N)c(C#N)c23)n1)[C@H](C)c1cccnc1N` [Compound 203, 2-amino-1′-[4-[[(1R)-1-(2-amino-3-pyridyl)ethyl]-ethyl-amino]-6-[[1-(3-oxa-8-azabicyclo[3.2.1]octan-8-ylmethyl)cyclopropyl]methoxy]-1,3,5-triazin-2-yl]spiro[6H-thieno[3,4-b]thiophene-4,3′-azetidine]-3-carbonitrile], the IC50 in assay [1] is under 10 nM; in assay [2], 10 to 100 nM; in assay [3] it was 10 to 100 nM; in assay [4], under 10 nM.

`CC(c1nsnc1N)N(C)c1nc(OC[C@@]23CCCN2C[C@H](F)C3)nc(N2CC3(C2)SCc2sc(N)c(C#N)c23)n1` (single isomer, unassigned) [Compound 184A, 2-amino-1′-[4-[[(1*)-1-(4-amino-1,2,5-thiadiazol-3-yl)ethyl]-methyl-amino]-6-[[(2R,8S)-2-fluoro-1,2,3,5,6,7-hexahydropyrrolizin-8-yl]methoxy]-1,3,5-triazin-2-yl]spiro[6H-thieno[2,3-c]thiophene-4,3′-azetidine]-3-carbonitrile]: the IC50 in assay [1] is under 10 nM; in assay [2], 10 to 100 nM; in assay [3], under 10 nM; in assay [4], under 10 nM.

In the case of `C[C@@]1(O)CCCN(c2nc(OCC3(CN4CCOCC4)CC3)nc(N3CC4(C3)c3c(sc(N)c3C#N)CC4(F)F)n2)C1` [Compound 98, 2-amino-5,5-difluoro-1′-[4-[(3R)-3-hydroxy-3-methyl-1-piperidyl]-6-[[1-(morpholinomethyl)cyclopropyl]methoxy]-1,3,5-triazin-2-yl]spiro[6H-cyclopenta[b]thiophene-4,3′-azetidine]-3-carbonitrile], the IC50 was under 10 nM in assay [1], 10 to 100 nM in assay [2], 100 to 1000 nM in assay [3] and under 10 nM in assay [4].

Take `N#Cc1c(N)sc2c1C1(CC2)CN(c2nc(OCC3(CN4CCOCC4)CC3)nc(N3CCCC(O)(C(F)F)C3)n2)C1` (stereo not drawn) [Compound 106, 2-amino-1′-[4-[3-(difluoromethyl)-3-hydroxy-1-piperidyl]-6-[[1-(morpholinomethyl)cyclopropyl]methoxy]-1,3,5-triazin-2-yl]spiro[5,6-dihydrocyclopenta[b]thiophene-4,3′-azetidine]-3-carbonitrile]: the IC50 in assay [1] was in the range of 10 to 100 nM; in assay [2], 100 to 1000 nM; in assay [3] it was 1000 to 20000 nM; in assay [4], 10 to 100 nM.

With `N#Cc1c(N)sc2c1C1(CN(c3nc(OCC4(CN5CCOCC5)CC4)nc(N4C[C@H]5CC[C@@H](C4)N5)n3)C1)SC2` [Compound 167, 1-(4-((1R,5S)-3,8-diazabicyclo[3.2.1]octan-3-yl)-6-((1-(morpholinomethyl)cyclopropyl)methoxy)-1,3,5-triazin-2-yl)-2′-amino-6′H-spiro[azetidine-3,4′-thieno[3,4-b]thiophene]-3′-carbonitrile], the IC50 in assay [1] was under 10 nM; in assay [2] it was under 10 nM; in assay [3], 1000 to 20000 nM; in assay [4], 10 to 100 nM.

Turning to `CCN(c1nc(OCC23CCCN2CCN(C)C3)nc(N2CC3(C2)SCc2sc(N)c(C#N)c23)n1)[C@H](C)c1cccnc1N` (stereo partly drawn) [Compound 223, 2-amino-1′-[4-[[(1R)-1-(2-amino-3-pyridyl)ethyl]-ethyl-amino]-6-[(2-methyl-1,3,4,6,7,8-hexahydropyrrolo[1,2-a]pyrazin-8a-yl)methoxy]-1,3,5-triazin-2-yl]spiro[6H-thieno[3,4-b]thiophene-4,3′-azetidine]-3-carbonitrile], the IC50 in assay [1] is under 10 nM; in assay [2] it was 10 to 100 nM; in assay [3], 10 to 100 nM; in assay [4], under 10 nM.

Consider `N#Cc1c(N)sc2c1C1(CC2)CN(c2nc(OCC3(C#N)CC3)nc(OCC3(CN4CCOCC4)CC3)n2)C1` [Compound 38, 2-amino-1′-[4-[(1-cyanocyclopropyl)methoxy]-6-[[1-(morpholinomethyl)cyclopropyl]methoxy]-1,3,5-triazin-2-yl]spiro[5,6-dihydrocyclopenta[b]thiophene-4,3′-azetidine]-3-carbonitrile], for which the IC50 is 10 to 100 nM in assay [1], 1000 to 20000 nM in assay [2], 100 to 1000 nM in assay [3] and under 10 nM in assay [4].

For the molecule `N#Cc1c(N)sc2c1C1(CC2)CN(c2nc(OC[C@@]34CCCN3C[C@H](F)C4)nc(N3CCCOC[C@H]3CO)n2)C1` [Compound 69, 2-amino-1′-[4-[[(2R,8S)-2-fluoro-1,2,3,5,6,7-hexahydropyrrolizin-8-yl]methoxy]-6-[(3R)-3-(hydroxymethyl)-1,4-oxazepan-4-yl]-1,3,5-triazin-2-yl]spiro[5,6-dihydrocyclopenta[b]thiophene-4,3′-azetidine]-3-carbonitrile], the IC50 in assay [1] is 10 to 100 nM; in assay [2], 1000 to 20000 nM; in assay [3], 1000 to 20000 nM; in assay [4], 10 to 100 nM.

As for `C[C@@]1(O)CCCN(c2nc(OCC3(CN4CCOCC4)CC3)nc(N3CC4(C3)SCc3sc(N)c(C#N)c34)n2)C1` [Compound 73, 2-amino-1′-[4-[(3R)-3-hydroxy-3-methyl-1-piperidyl]-6-[[1-(morpholinomethyl)cyclopropyl]methoxy]-1,3,5-triazin-2-yl]spiro[6H-thieno[2,3-c]thiophene-4,3′-azetidine]-3-carbonitrile], the IC50 in assay [1] was under 10 nM; in assay [2], 10 to 100 nM; in assay [3], 10 to 100 nM; in assay [4], under 10 nM.

Turning to `C[C@@]1(O)CCCN(c2nc(OC[C@@]34CCCN3C[C@H](F)C4)nc(N3CC4(C3)c3c(sc(N)c3C#N)CC3CC34)n2)C1` (stereo partly drawn) [Compound 51, 2-amino-1′-[4-[[(2R,8S)-2-fluoro-1,2,3,5,6,7-hexahydropyrrolizin-8-yl]methoxy]-6-[(3R)-3-hydroxy-3-methyl-1-piperidyl]-1,3,5-triazin-2-yl]spiro[4a,5,5a,6-tetrahydrocyclopropa[f]benzothiophene-4,3′-azetidine]-3-carbonitrile], the IC50 in assay [1] was in the range of 10 to 100 nM; in assay [2], 100 to 1000 nM; in assay [3] it was 1000 to 20000 nM; in assay [4] it was 10 to 100 nM.

For `C[C@@]1(O)CCCN(c2nc(OC[C@@]34CCCN3C[C@H](F)C4)nc(N3CC4(C3)c3c(sc(N)c3C#N)CC4F)n2)C1` (stereo partly drawn) [Compound 71, 2-amino-5-fluoro-1′-[4-[[(2R,8S)-2-fluoro-1,2,3,5,6,7-hexahydropyrrolizin-8-yl]methoxy]-6-[(3R)-3-hydroxy-3-methyl-1-piperidyl]-1,3,5-triazin-2-yl]spiro[5,6-dihydrocyclopenta[b]thiophene-4,3′-azetidine]-3-carbonitrile], the IC50 was under 10 nM in assay [1], 100 to 1000 nM in assay [2], 100 to 1000 nM in assay [3] and 10 to 100 nM in assay [4].
